From patent publication US9408925B2, “Hyperpolarized lactate contrast agent for determination of LDH activity” (GE Healthcare Limited, priority 2010, dated 2016)

What was measured:
[1] = 13C T1 and T2 relaxation of non-polarized lactate samples (10 mM) at 9.4 T; type: physicochemical
Experimental: For FIG. 3, the samples contained 10 mM of either L-[1-^13C1, 2-^2H1] lactate or L-[1-^13C1] lactate (non-polarized). The T1 of the deuterated lactate was 55.8+/−2.2 s (n=1) and the T2 1.33+/−0.10 s (n=4) and the T1 of the C2 protonated lactate was 46.9+/−4.0 s (n=1) and the T2 1.49+/−0.13 s (n=2) (at 9.4 T). Heteronuclear ^13C/^1H double echo spectra were acquired using a 10 μs 90° ^13C pulse, a 5 ms adiabatic 180° ^13C pulse (bandwidth ˜2 kHz) and a 10 ms adiabatic ^1H pulse (bandwidth ˜1 kHz), which was centered on either the C2 or C3 lactate proton resonances (FIG. 2B). The TR was 20 s. Initial dummy scans produced a steady state z magnetization. The spectral bandwidth was 8 kHz and data were collected into 2048 complex points. Phase and amplitude corrected peak integrals for the lactate ^13C resonance were measured. The echo time is equivalent to 2τ.

[2] = T1 estimated from series of heteronuclear 13C/1H double echo spectra of hyperpolarized equimolar lactate mixture; type: physicochemical; details: 10 mM, multiple double echo spectra (FIG. 6)
Experimental: L-[1-^13C1] lactate was hyperpolarized using the DMSO preparation described in (Chen, A. P., et al. Feasibility of using hyperpolarized [1-C-13] lactate as a substrate for in vivo metabolic C-13 MRSI studies. Magnetic Resonance Imaging 26, 721-726 (2008)) with added Gd^3+. Briefly, 70 mg of a ˜50% w/w sodium L-[1-^13C1] lactate solution (0.31 mmol) (Sigma Aldrich, Gillingham, UK) is added to 27 mg DMSO (0.36 mmol) (Sigma Aldrich, Gillingham, UK), 2 mg OX 63 radical (1.4 μmol)(GE Healthcare) and 2.7 mg of a 50 mmol/L solution of Dotarem Gd^3+ chelate (Guerbet, Roissy, France). For in vitro experiments, one third of the resulting solution is polarised to the maximum at the optimal microwave frequency. Once the polarisation is at a maximum, the dissolution is performed with 6 mL of a 40 mmol/L Tris based buffer (pH=7.6) with added 100 mg/L EDTA. The final concentration of hyperpolarised L-[1-^13C1] lactate is then approximately 17 mmol/L. Acquisition of hetero-nuclear ^13C/^1H double echo spectra (TE=300 ms), with and without a 180° ^1H pulse, gave the spectra shown in FIG. 4.
An equimolar mixture of L-[1-^13C1] lactate and L-[1-^13C1, 2-^2H1] lactate was prepared and polarized to ˜26+/−0.5% (n=2). The final lactate concentration in the NMR tube was 10 mM.
Spectra were acquired with and without the 180° ^1H pulse. […]

Row | T1 [1] | T2 [1] | estimated T1 [2] | SMILES
1 | 55.8 ± 2.2 s | 1.33 ± 0.10 s | 27 s | [2H][C@@](C)(O)[13C](=O)O [L-[1-^13C1,2-^2H1] lactate, L-[1-^13C, 2-^2H] Lactate]
2 | 46.9 ± 4.0 s | 1.49 ± 0.13 s | 25 s | C[C@H](O)[13C](=O)[O-].[Na+] [L-[1-^13C1] lactate, Sodium L-[1-^13C1] lactate]
